The text below walks through data of PubChem BioAssay (NCI).

Test systems include SF-295 CNS; HT29 colon; M14 melanoma; HCT-116 colon; LOX IMVI melanoma; HCT-15 colon; SR leukemia; PC-3 prostate; SK-MEL-5 melanoma; MALME-3M melanoma.
Common to all, as to experiment: NCI-60 cell line screen, 48 h

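Five concentrations, 48 hours, 96-well plates. TGI marks complete inhibition of growth.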 Bounds are passed on as bounds.

In the case of `Cc1nc(N)sc1C(=O)Nc1ncn[nH]1`, the TGI in the assay on SF-295 CNS, in the assay with HT29 colon, in the assay with M14 melanoma, with HCT-116 colon, with LOX IMVI melanoma and in the assay with HCT-15 colon was above 100 µM throughout. For the same compound, the TGI with SR leukemia was 70 µM; with PC-3 prostate, above 100 µM; in the assay with SK-MEL-5 melanoma, above 100 µM.
`O=C(N/N=C\c1cccs1)c1ccncc1`: the TGI in the assay on SF-295 CNS, in the assay with MALME-3M melanoma, in the assay on HT29 colon, in the assay on M14 melanoma, in the assay on HCT-116 colon and in the assay with HCT-15 colon was above 100 µM throughout. In addition, the TGI in the assay on SR leukemia, with PC-3 prostate and with SK-MEL-5 melanoma was above 100 µM in each case.
On to `COC(=O)CCCC1(CCCC(=O)OC)CCCCCCCCC(CCCC(=O)OC)(CCCC(=O)OC)C(=O)C1=O`, for which the TGI is above 100 µM in the assay with SF-295 CNS; 60.1 µM in the assay on MALME-3M melanoma; above 100 µM with HT29 colon; above 100 µM in the assay on M14 melanoma; above 100 µM with HCT-116 colon; 48.5 µM in the assay with LOX IMVI melanoma. Also, the TGI with HCT-15 colon was above 100 µM; in the assay with SR leukemia, 85.5 µM; in the assay with PC-3 prostate, 53.5 µM; with SK-MEL-5 melanoma, above 100 µM.
Regarding `C[C@@H](NC(=O)[C@@H]1C[C@]1(C)CO)c1cccc2ccccc12`, the TGI in the assay with SF-295 CNS, with MALME-3M melanoma, with HT29 colon, with M14 melanoma, in the assay on HCT-116 colon and in the assay with HCT-15 colon was above 100 µM each time. Moreover, the TGI with SR leukemia, in the assay with PC-3 prostate and with SK-MEL-5 melanoma was above 100 µM in each case.
With `N#C/C=c1/c2ccccc2n2nc3ccccc3c12`, the TGI is above 100 µM in the assay with SF-295 CNS; above 100 µM in the assay with MALME-3M melanoma; above 100 µM with HT29 colon; above 100 µM with M14 melanoma; 12.1 µM in the assay on HCT-116 colon; above 100 µM in the assay on LOX IMVI melanoma. In addition, the TGI in the assay with HCT-15 colon, in the assay with SR leukemia, in the assay with PC-3 prostate and with SK-MEL-5 melanoma was above 100 µM throughout.
On to `O=C1C(C(c2ccc([N+](=O)[O-])cc2)N2CCOCC2)=C(O)C(c2ccccc2)N1c1ccccc1` (stereo not given), for which the TGI in the assay on SF-295 CNS, with MALME-3M melanoma, in the assay on HT29 colon, with M14 melanoma, in the assay with HCT-116 colon and in the assay with LOX IMVI melanoma was above 10 µM throughout. Also, the TGI in the assay on HCT-15 colon, in the assay on SR leukemia, in the assay with PC-3 prostate and in the assay on SK-MEL-5 melanoma was above 10 µM throughout.
Consider `O=C1CCCCC/C1=C\c1cccc([N+](=O)[O-])c1`, for which the TGI is 50.4 µM with SF-295 CNS; 72.4 µM with MALME-3M melanoma; above 100 µM in the assay with HT29 colon; above 100 µM with M14 melanoma; 53 µM in the assay on HCT-116 colon; 39.9 µM in the assay on SR leukemia. For the same compound, the TGI in the assay on PC-3 prostate was above 100 µM; in the assay with SK-MEL-5 melanoma, 40.4 µM.
Take `C=CC(C)(C)C1(CC(OC)OC)C(=O)N(C)c2ccccc21` (stereo not given): the TGI in the assay on SF-295 CNS, in the assay with HT29 colon, in the assay with M14 melanoma, with HCT-116 colon, with LOX IMVI melanoma and in the assay with HCT-15 colon was above 25 µM throughout. Also, the TGI with SR leukemia, in the assay on PC-3 prostate and with SK-MEL-5 melanoma was above 25 µM in each case.
Consider `O=C(CNc1nccs1)Nn1cnc2ccc(S(=O)(=O)Nc3nccs3)cc2c1=O`, for which the TGI in the assay on SF-295 CNS, in the assay with MALME-3M melanoma, in the assay on HT29 colon, in the assay on M14 melanoma, in the assay with HCT-116 colon and in the assay with LOX IMVI melanoma was above 100 µM in each case. The TGI in the assay with HCT-15 colon, in the assay on SR leukemia and in the assay with PC-3 prostate was above 100 µM throughout.
On to `CCOC(=O)CCC(NC(=O)c1ccc(Nc2nc3cc(C(F)(F)F)ccc3nc2C(=O)OCC)cc1)C(=O)OCC` (stereo not given), for which the TGI is 19.3 µM in the assay on SF-295 CNS; 18.7 µM in the assay with HT29 colon; 16.9 µM in the assay on M14 melanoma; 19.9 µM in the assay on HCT-116 colon; 36.2 µM in the assay with LOX IMVI melanoma; above 100 µM in the assay with HCT-15 colon. For the same compound, the figures for the TGI with SR leukemia, in the assay with PC-3 prostate and with SK-MEL-5 melanoma were above 100 µM, 21.5 µM and 93 µM, respectively.
`Nc1nc(Nc2ccc(Cl)cc2)sc1C(=O)c1c[nH]c2ccccc12`: the TGI amounted to 31.2 µM with MALME-3M melanoma; 20 µM in the assay with HT29 colon; 23.5 µM in the assay with M14 melanoma; 23.1 µM in the assay on HCT-116 colon; 43.8 µM with LOX IMVI melanoma; 15.2 µM in the assay with HCT-15 colon. Also, the results for the TGI with SR leukemia, with PC-3 prostate and with SK-MEL-5 melanoma were above 100 µM, 27.9 µM and 24.3 µM, respectively.
As for `CCCc1n[nH]c(=O)n1N1C(=O)C=CC1=O`, the TGI in the assay on SF-295 CNS, with MALME-3M melanoma, in the assay on M14 melanoma, in the assay with HCT-116 colon, in the assay on HCT-15 colon and in the assay on SR leukemia was above 100 µM in each case. In addition, the TGI in the assay on PC-3 prostate and in the assay with SK-MEL-5 melanoma was above 100 µM each time.
In the case of `COC(=O)c1ccccc1NC(=S)NN(C)C`, the TGI in the assay with SF-295 CNS, in the assay with MALME-3M melanoma, in the assay on M14 melanoma, with HCT-116 colon, with LOX IMVI melanoma and in the assay on HCT-15 colon was above 100 µM in each case. The TGI in the assay with SR leukemia and with PC-3 prostate was above 100 µM each time.
For `O=S(c1ccccc1)C1CC2CC3(CCC21O)OCCO3` (stereo not given), the TGI in the assay with SF-295 CNS, in the assay with MALME-3M melanoma, with HT29 colon, with M14 melanoma, in the assay with LOX IMVI melanoma and in the assay on HCT-15 colon was above 100 µM in each case. The TGI in the assay with SR leukemia, in the assay on PC-3 prostate and in the assay on SK-MEL-5 melanoma was above 100 µM throughout.
In the case of `COCCOC(C)C(=O)C(O)S(=O)(=O)O` (stereo not given), the TGI in the assay with SF-295 CNS, in the assay with MALME-3M melanoma, in the assay with HT29 colon, with M14 melanoma, with HCT-116 colon and in the assay with HCT-15 colon was above 100 µM each time. Besides, the TGI in the assay on SR leukemia, in the assay with PC-3 prostate and in the assay on SK-MEL-5 melanoma was above 100 µM throughout.
